Measurements taken from patent EP0133934A2, “Pharmacologically active 1,3,4-thiadiazol-(3,2-a)-thieno-(2,3-d)-pyrimidin-5-(H)one derivatives” (NIKEPHARMA S.r.l., priority 1983, dated 1985).

What was measured:
[1] = tested on: Writhing test induced by phenyl-benzoquinone; test: Phenylbenzoquinone writhing test in the rat; format: in vivo; conditions: Rattus norvegicus, po, 10 min, read-out: % INHIBI-TION
Method: (§1) The activity tests were carried out on male Spra gue-Dawley rats weighing 200+20 g and on male Swiss mice weighing 26+3 g.
(§2) The test compounds were administered orally by means of gastroesophageal tube, in the form of a suspen sion in a 10 ml/kg mucilage of 5% gum arabic; and intraperitoneally in the form of an aqueous suspen sion added with a few drops of Tween 80, in the con stant volume of 10 ml/kg.

[2] = tested on: phenylbenzoquinone writhing test; test: Phenylbenzoquinone writhing test in the mouse (ED50 and duration of effect); format: in vivo; conditions: for % INHI-BITION / N° OF WRITHES IN 10' ml ± E.S.: Table 6, oral, one hour before the test; for N° OF WRITHES IN 10' ml ± E.S.: controls 52.4 ± 1.69; for % INHIBITION / Nº OF WRITHES IN 10' ml ± E.S.: Table 7, oral 1 mg/kg; for Nº OF WRITHES IN 10' ml ± E.S.: controls 53.2 ± 1.26
Method: The analgesic effect was determined by the number of writhes of the abdomen recorded during 10 minutes (from 5 to 15 minutes after the phenylbenzo quinone injection).

gastric ulceration = format: in vivo, rat; conditions: os
Method: To rats fasted for 18 hours, with water ad libitum, were administered the compounds under test at "0" time and after 2 hours. Control rats were treated with established anti-inflammatory agents.
6 Hours after the beginning of the test, the animals were killed by ether inhalation.
Gastric ulceration was assessed on the ground of values ranging from 0 to 4: • 0 = no ulceration; • 1 = slight iperhaemia and/or a few ulcers; • 2 = severe iperhaemia and many punctiform ulcers; • 3 = severe submucosal hemorrage, one large ulcer and many punctiform ulcers; • 4 severe submucosal hemorrage and many large ulcers.
The ulcerogenic index was measured by the following formula (Lwoff. J.M., J. Pharmacol., 2, 81, 1971): [formula]

carrageenin oedema = test: Antiinflammatory activity: carrageenin oedema in the rat; format: in vivo; conditions: po, 4 h, read-out: OEDEMA INHIBITION % at the fourth hour
Method: as §1, §2
The compounds under test and the control ones were administered orally one hour before the injection of 0.1 ml of 1% carrageenin in the right paw of the animals.
The volume of the paw was measured by means of a plethysmograph immediately before the injection and 2, 4 and 6 hours after.
The results were expressed as percentage inhibi tion of the oedema in the treated animals in comparison with the control animals, at the time of the maximum oedema development (fourth hour after the carrageenin injection).

Carrageenin pleuritis = Carrageenin pleuritis in the rat; format: in vivo; conditions: for EXUDATE VOLUME: 30 min. before carrageenin and 6 hours after, exudate at 18 hours, controls 2.76 ± 0.38
Method: Compound HA-34 was tested for the protective activity against the exudative pleuritis reaction induced by carrageenin. HA-34 was administered 30 min. before the injection of carrageenin, and 6 hours after it. The experiment was carried out on male Spra- gue-Dawley rats, anestethized with ethyl urethane, which were subjected, in their right pleural cavity, to injection of 1.5 ml of air and then 0.1 ml of a 1% carrageenin solution, in sterile normal saline, according to the procedure by Van Armann et al. (J. Pharmac. Exp. Ther., 150, 328, 1965). Indometha cin and Piroxicam were employed as the control drugs, under the same conditions. 18 Hours after the intrapleuric carrageenin injec tion, the animals were killed by means of ether inhalation, and the pleuric exudate was collected and measured.

acetic acid peritonitis = test: Anti-exudative activity: acetic acid peritonitis in the rat; format: in vivo; conditions: for EXUDATE VOLUME ml ± E.S.: controls 2.58 ± 0.18
Method: The test was carried out according to the procedure described by Arrigoni-Martelli (Boll.Chim. Far. 107, 29, 1968). This method is based upon the evaluation of the anti-exudative effect of a drug at the peritoneal level, following a intraperitoneal injection of 10 ml/kg of a 0.5% acetic acid solution.
The compounds under test were administered oral ly one hour before the inflammatory agent; 30 minutes after the treatment the animals were killed and the fluid from the peritoneal cavity was drawn and measured.
The test compounds were administered by oral route 1 hour before intraperitoneal injection of acetic acid (10 ml/kg of a 0.5% solution).
The anti-exudative activity was determined on the basis of the peritoneal exudate of the treated animals, in comparison with the controls.

[3] = 30 min. before phenylbenzoquinone

With COc1ccc2c(c1)c(CC(=O)O)c(C)n2C(=O)c1ccc(Cl)cc1 [INDO, Indomethacin] the inhibition in vivo at 0.5 mg/kg [1] was 49%, the inhibition in vivo at 5 mg/kg [1] was 87% and the ED50 ([2]; Mus musculus, po, 1 h) was 0.5 mg/kg. For the same compound, the “% INHI-BITION” value ([2]; 0.1 mg/kg) was 22.9%, the “N° OF WRITHES IN 10' ml ± E.S.” value ([2]; 0.1 mg/kg) was 40.4 ± 2.46 and the “% INHI-BITION” value ([2]; 0.5 mg/kg) was 48.1%. The “N° OF WRITHES IN 10' ml ± E.S.” value ([2]; 0.5 mg/kg) was 27.2 ± 1.48, the “% INHI-BITION” value ([2]; 1 mg/kg) was 87.0% and the “N° OF WRITHES IN 10' ml ± E.S.” value ([2]; 1 mg/kg) was 6.8 ± 0.76. The “% INHI-BITION” value ([2]; 5 mg/kg) was 91.4%, the “N° OF WRITHES IN 10' ml ± E.S.” value ([2]; 5 mg/kg) was 4.5 ± 0.65 and the “% INHIBITION” value [2, 3] was 85.5%. For the same compound, the “Nº OF WRITHES IN 10' ml ± E.S.” value [2, 3] was 7.7 ± 1.18, the “% INHIBITION” value ([2]; 1 h before phenylbenzoquinone) was 87.8% and the “Nº OF WRITHES IN 10' ml ± E.S.” value ([2]; 1 h before phenylbenzoquinone) was 6.5 ± 0.86. For the same compound, the “% INHIBITION” value ([2]; 3 h before phenylbenzoquinone) was 88.3%, the “Nº OF WRITHES IN 10' ml ± E.S.” value ([2]; 3 h before phenylbenzoquinone) was 6.2 ± 0.70 and the “% INHIBITION” value ([2]; 4 h before phenylbenzoquinone) was 87.2%. The “Nº OF WRITHES IN 10' ml ± E.S.” value ([2]; 4 h before phenylbenzoquinone) was 6.8 ± 0.64, the “% INHIBITION” value ([2]; 6 h before phenylbenzoquinone) was 80.4% and the “Nº OF WRITHES IN 10' ml ± E.S.” value ([2]; 6 h before phenylbenzoquinone) was 10.4 ± 0.56. The “% INHIBITION” value ([2]; 8 h before phenylbenzoquinone) was 60.3%, the “Nº OF WRITHES IN 10' ml ± E.S.” value ([2]; 8 h before phenylbenzoquinone) was 21.2 ± 1.26 and the “% INHIBITION” value ([2]; 24 h before phenylbenzoquinone) was 53.4%. The “Nº OF WRITHES IN 10' ml ± E.S.” value ([2]; 24 h before phenylbenzoquinone) was 24.8 ± 1.15, the “% INHIBITION” value ([2]; 32 h before phenylbenzoquinone) was 25.9% and the “Nº OF WRITHES IN 10' ml ± E.S.” value ([2]; 32 h before phenylbenzoquinone) was 39.4 ± 1.36. For the same compound, the “ULCERA-TION INDEX” value (gastric ulceration) was 250, the “% ANIMALS WITH ULCERS” value (gastric ulceration; 20 mg/kg) was 100% and the “ULCERA-TION DEGREE” value (gastric ulceration; 20 mg/kg, scale 0 to 4) was 2.5. The inhibition in vivo at 10 mg/kg (carrageenin oedema) was 57.3 ± 0.85%, the “% INHIBITION” value (Carrageenin pleuritis; 5 mg/kg) was 51.8% and the “EXUDATE VOLUME” value (Carrageenin pleuritis; 5 mg/kg) was 1.33 ± 0.34. For the same compound, the “% INHIBITION” value (Carrageenin pleuritis; 10 mg/kg) was 72.4%, the “EXUDATE VOLUME” value (Carrageenin pleuritis; 10 mg/kg) was 0.76 ± 0.20 and the inhibition in vivo at 1 mg/kg (acetic acid peritonitis; Rattus norvegicus, po, Table 4, os, 1 mg/kg) was 74%. It also gave an inhibition in vivo at 10 mg/kg (acetic acid peritonitis; Rattus norvegicus, po, Table 4, os, 10 mg/kg) of 93%, an inhibition in vivo at 0.1 mg/kg (acetic acid peritonitis; Rattus norvegicus, po, Table 8, oral, 0.1 mg/kg) of 37.2% and an inhibition in vivo at 0.5 mg/kg (acetic acid peritonitis; Rattus norvegicus, po, Table 8, oral, 0.5 mg/kg) of 53%. The inhibition in vivo at 1 mg/kg (acetic acid peritonitis; Rattus norvegicus, po, Table 8, oral, 1 mg/kg) was 72.8%, the inhibition in vivo at 10 mg/kg (acetic acid peritonitis; Rattus norvegicus, po, Table 8, oral, 10 mg/kg) was 94.8% and the ED50 (acetic acid peritonitis; Rattus norvegicus, oral administration 1 hour before i.p. acetic acid) was 0.3 mg/kg. The “EXUDATE VOLUME ml ± E.S.” value (acetic acid peritonitis; Table 8, oral, 0.1 mg/kg, 1 hour before acetic acid) was 1.62 ± 0.09 mL, the “EXUDATE VOLUME ml ± E.S.” value (acetic acid peritonitis; Table 8, oral, 0.5 mg/kg) was 1.21 ± 0.07 mL and the “EXUDATE VOLUME ml ± E.S.” value (acetic acid peritonitis; Table 8, oral, 1 mg/kg) was 0.70 ± 0.09 mL. For the same compound, the “EXUDATE VOLUME ml ± E.S.” value (acetic acid peritonitis; Table 8, oral, 10 mg/kg) was 0.13 ± 0.04 mL.
